Data from patent publication US9422263B2, “Fluoro-substituted 3,5-dicyano-4-(1H-indazol-5-yl)-2,6-dimethyl-1,4-dihydropyridine derivatives and methods of use thereof” (BAYER PHARMA AKTIENGESELLSCHAFT, priority 2009, dated 2016).

Tests used:
[1] = molecular target: Recombinant human c-Met protein (Homo sapiens (Human), UniProt P08581); test: c-Met receptor tyrosine kinase activity assay (NADH read-out); assay type: biochemical; details: ATP 30 μM, c-Met 30 nM
Method: c-Met Receptor Tyrosine Kinase Activity Assay (NADH Read-Out):
Recombinant human c-Met protein (Invitrogen, Carlsbad, Calif., USA) is used. As substrate for the kinase reaction the peptide KKKSPGEYVNIEFG (JPT, Germany) is used. For the assay, 1 μL of a 51-fold concentrated solution of the test compound in DMSO is pipetted into a white 384-well microtiter plate (Greiner Bio-One, Frickenhausen, Germany). 25 μL of a solution of c-Met (final concentration 30 nM) and pyruvate kinase/lactate dehydrogenase (Roche Diagnostics, Mannheim, Germany; final concentration 8 mg/L) in assay buffer [3-(N-morpholino)propanesulfonic acid (MOPS), 50 mM, pH 7; MgCl2, 10 mM; bovine serum albumin (BSA), 0.01%; Triton X 100, 0.01%; DTT, 2 mM] are added, and the mixture is incubated for 5 min at room temperature. Then, the kinase reaction is started by the addition of 25 μL of a solution of adenosine triphosphate (ATP, final concentration 30 μM), substrate (final concentration 100 μM), nicotinamide adenine dinucleo-tide (NADH, final concentration 50 μM) and dithiothreitol (DTT, final concentration 2 mM) in assay buffer, and the resulting mixture is incubated for a reaction time of 100 min at 32° C.
Subsequently, the amount of phosphorylated substrate is evaluated by measurement of the decrease of NADH fluorescence. Therefore, the fluorescence emissions at 465 nm after excitation at 340 nm is measured in a fluorescence reader, e.g. Tecan Ultra (Tecan, Männedorf, Switzerland). The data are normalised (enzyme reaction without inhibitor=0% inhibition; all other assay components but no enzyme=100% inhibition).

[2] = Caco-2 permeability assay; assay type: in vitro ADME; details: human, apical to basolateral, 2 h at 37° C., Table 4, read-out: Caco-2 permeability PappA-B
Description: Caco-2 Permeability Assay:
The in vitro permeation of a test compound across a Caco-2 cell monolayer is a well-established assay system to predict the permeability from the gastro-intestinal tract [cf. P. Artursson and J. Karlsson: Correlation between oral drug absorption in humans and apparent drug permeability coefficients in human intestinal epithelial (Caco-2) cells, Biochem. Biophys. 175 (3), 880-885 (1991)]. The permeability of the compounds of the present invention in such Caco-2 cells was determined as described below:
Human caco-2 cells (ACC No. 169, DSMZ, German Collection of Microorganisms and Cell Cultures, Braunschweig, Germany) are seeded on 24-well insert plates and are allowed to grow for 14-16 days. For permeability studies, the test compounds are dissolved in DMSO and diluted to the final test concentration of 2 μM with transport buffer [Hanks' Buffered Salt Solution, Gibco/Invitrogen, further supplemented with glucose (final concentration 19.9 mM) and HEPES (final concentration 9.8 mM)]. For determination of the apical to basolateral permeability (PappA-B), the test compound solution is added to the apical side of the cell monolayer and transport buffer to the basolateral side of the monolayer; for determination of the basolateral to apical permeability (PappB-A), the test compound solution is added to the basolateral side of the cell monolayer and transport buffer to the apical side of the monolayer. Samples are taken from the donor compartment at the beginning of the experiment to confirm mass balance. After an incubation of 2 h at 37° C., samples are taken from both compartments. Samples are analyzed by LC-MS/MS, and the apparent permeability coefficients are calculated. Lucifer Yellow permeability is assayed for each cell monolayer to ensure cell monolayer integrity, and the permeability of Atenolol (low permeability marker) and Sulfasalazine (marker for active excretion) is determined for each batch as quality control.

[3] = molecular target: recombinant kinase domain of the human c-Met (amino acids 960-1390) (Homo sapiens (Human), UniProt P08581); test: c-Met receptor tyrosine kinase homogeneous time-resolved fluorescence assay (alternative format); assay type: biochemical; details: HTRF format; ATP 10 μM
Description: c-Met Receptor Tyrosine Kinase Homogeneous Time-Resolved Fluorescence Assay (Alternative Format):
The N-terminally His6-tagged recombinant kinase domain of the human c-Met (amino acids 960-1390), expressed in insect cells (SF21) and purified by Ni-NTA affinity chromatography and consecutive size exclusion chromatography (Superdex 200), is used. Alternatively, commercially available c-Met (Millipore) can be used. As substrate for the kinase reaction, the biotinylated poly-Glu, Tyr (4:1) copolymer (#61GTOBLC, Cis Biointernational, Marcoule, France) is used.
For the assay, […] of a 100-fold concentrated solution of the test compound in DMSO is pipetted into a black low-volume 384-well microtiter plate (Greiner Bio-One, Frickenhausen, Germany). 2 μL of a solution of c-Met in assay buffer [25 mM Hepes/NaOH, pH 7.5; 5 mM MgCl2; 5 mM MnCl2; 2 mM dithiothreitol; 0.1% (v/v) Tween 20 (Sigma); 0.1% (w/v) bovine serum albumin] are added, and the mixture is incubated for 15 min at 22° C. to allow pre-binding of the test compound to the enzyme before the start of the kinase reaction. Then, the kinase reaction is started by the addition of 3 μL of a solution of adenosine triphosphate (ATP, 16.7 μM; final concentration in the 5 μL assay volume is 10 μM) and substrate (2.27 μg/mL, final concentration in the 5 μL assay volume is 1.36 μg/mL ˜30 nM) in assay buffer, and the resulting mixture is incubated for a reaction time of 30 min at 22° C. The concentration of c-Met in the assay is adjusted depending on the activity of the enzyme lot and is appropriately chosen to have the assay in the linear range; typical enzyme concentrations are in the range of about 0.03 nM (final concentration in the 5 μL assay volume). The reaction is stopped by the addition of 5 μL of a solution of HTRF detection reagents [40 nM streptavidine-X Lent and 2.4 nM PT66-Eu-chelate, an europium-chelate labelled anti-phosphotyrosine antibody (Perkin-Elmer)] in an aqueous EDTA solution [100 mM EDTA, 0.2% (w/v) bovine serum albumin in 50 mM HEPES/NaOH, pH 7.5].
The resulting mixture is incubated for 1 h at 22° C. to allow the binding of the biotinylated phosphorylated peptide to the streptavidine-XLent and the PT66-Eu-chelate. Subsequently, the amount of phosphorylated substrate is evaluated by measurement of the resonance energy transfer from the PT66-Eu-chelate to the streptavidine-XLent. Therefore, the fluorescence emissions at 620 nm and 665 nm after excitation at 350 nm are measured in an HTRF reader, e.g. Rubystar (BMG Lab-technologies, Offenburg, Germany) or Viewlux (Perkin-Elmer). The ratio of the emissions at 665 nm and at […] is taken as the measure for the amount of phosphorylated substrate. The data are normalised (enzyme reaction without inhibitor=0% inhibition; all other assay components but no enzyme=100% inhibition).

Recombinant human c-Met protein, sequence (P08581 25-1390): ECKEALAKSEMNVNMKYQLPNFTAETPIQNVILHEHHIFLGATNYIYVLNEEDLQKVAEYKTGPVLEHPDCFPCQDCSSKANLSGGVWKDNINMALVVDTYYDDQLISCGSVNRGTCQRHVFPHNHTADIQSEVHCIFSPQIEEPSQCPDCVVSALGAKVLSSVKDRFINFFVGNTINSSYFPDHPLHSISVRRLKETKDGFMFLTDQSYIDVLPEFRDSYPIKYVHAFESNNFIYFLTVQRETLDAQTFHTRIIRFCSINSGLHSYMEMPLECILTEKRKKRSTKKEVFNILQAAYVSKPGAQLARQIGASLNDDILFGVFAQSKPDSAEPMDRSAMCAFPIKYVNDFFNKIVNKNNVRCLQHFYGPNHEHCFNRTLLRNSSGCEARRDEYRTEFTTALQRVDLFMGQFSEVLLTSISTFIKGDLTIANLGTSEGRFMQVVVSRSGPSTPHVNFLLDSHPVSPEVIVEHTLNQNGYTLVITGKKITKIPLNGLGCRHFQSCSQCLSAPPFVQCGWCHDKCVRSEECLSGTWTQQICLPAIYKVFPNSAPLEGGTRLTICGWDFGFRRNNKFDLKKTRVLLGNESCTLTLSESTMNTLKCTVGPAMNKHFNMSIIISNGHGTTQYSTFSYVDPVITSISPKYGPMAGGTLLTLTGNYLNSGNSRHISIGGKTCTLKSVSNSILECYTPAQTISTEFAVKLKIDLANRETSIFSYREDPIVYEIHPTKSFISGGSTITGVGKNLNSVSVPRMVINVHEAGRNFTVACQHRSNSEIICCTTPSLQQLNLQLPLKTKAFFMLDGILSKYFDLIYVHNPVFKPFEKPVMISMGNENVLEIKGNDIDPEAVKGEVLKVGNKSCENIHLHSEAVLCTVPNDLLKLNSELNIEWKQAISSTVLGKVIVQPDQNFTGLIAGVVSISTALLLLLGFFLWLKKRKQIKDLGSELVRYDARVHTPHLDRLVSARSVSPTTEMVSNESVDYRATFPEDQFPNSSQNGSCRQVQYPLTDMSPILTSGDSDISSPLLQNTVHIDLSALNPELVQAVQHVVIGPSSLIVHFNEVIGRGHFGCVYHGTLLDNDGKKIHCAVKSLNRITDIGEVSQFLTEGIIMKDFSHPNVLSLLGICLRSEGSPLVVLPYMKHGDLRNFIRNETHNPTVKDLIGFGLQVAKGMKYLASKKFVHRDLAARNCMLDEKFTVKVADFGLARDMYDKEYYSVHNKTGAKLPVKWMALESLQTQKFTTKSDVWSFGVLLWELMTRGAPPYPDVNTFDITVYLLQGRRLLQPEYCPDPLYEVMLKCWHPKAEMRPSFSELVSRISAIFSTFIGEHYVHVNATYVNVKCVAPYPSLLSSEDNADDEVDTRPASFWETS
recombinant kinase domain of the human c-Met (amino acids 960-1390), sequence (P08581 960-1390): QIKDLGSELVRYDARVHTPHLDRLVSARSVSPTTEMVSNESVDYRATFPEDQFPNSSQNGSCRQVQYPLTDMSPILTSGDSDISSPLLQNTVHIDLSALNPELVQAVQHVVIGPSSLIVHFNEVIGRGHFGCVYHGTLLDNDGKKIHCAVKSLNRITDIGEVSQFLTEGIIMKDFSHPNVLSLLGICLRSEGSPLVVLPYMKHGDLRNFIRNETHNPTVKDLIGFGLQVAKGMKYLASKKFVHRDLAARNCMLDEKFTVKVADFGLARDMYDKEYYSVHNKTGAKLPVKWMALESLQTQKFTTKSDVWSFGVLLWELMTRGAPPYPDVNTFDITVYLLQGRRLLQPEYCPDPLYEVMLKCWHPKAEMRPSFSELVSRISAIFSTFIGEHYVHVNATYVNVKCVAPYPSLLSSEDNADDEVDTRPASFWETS

| IC50 [1] [nM] | Papp at 2 h, 2 μM [2] [×10⁻⁶ cm/s] | IC50 [3] [nM] | Compound |
| --- | --- | --- | --- |
| 27 | 20 | – | CC1=C(C#N)C(c2ccc3[nH]ncc3c2)C(C#N)=C(C(F)(F)F)N1 (racemic) [Example 20, rac-4-(1H-Indazol-5-yl)-2-methyl-6-(trifluoromethyl)-1,4-dihydropyridine-3,5-dicarbonitrile] |
| 21 | 22 | 3 | CCC(F)(F)C1=C(C#N)C(c2ccc3[nH]nc(C)c3c2)C(C#N)=C(C)N1 (racemic) [Example 30, rac-2-(1,1-Difluoropropyl)-6-methyl-4-(3-methyl-1H-indazol-5-yl)-1,4-dihydropyridine-3,5-dicarbonitrile] |
| 6 | – | 2 | CC1=C(C#N)C(c2ccc3[nH]nc(C)c3c2)C(C#N)=C(C(F)F)N1 (single isomer, unassigned) [Example 2, 2-(Difluoromethyl)-6-methyl-4-(3-methyl-1H-indazol-5-yl)-1,4-dihydropyridine-3,5-dicarbonitrile] |
| 12 | – | – | CC1=C(C#N)C(c2ccc3[nH]nc(C)c3c2)C(C#N)=C(C(F)(F)F)N1 (single isomer, unassigned) [Example 5] |
| 9 | – | – | CC1=C(C#N)C(c2cc3c(C)n[nH]c3cc2F)C(C#N)=C(C(F)F)N1 (single isomer, unassigned) [Example 8, 2-(Difluoromethyl)-4-(6-fluoro-3-methyl-1H-indazol-5-yl)-6-methyl-1,4-dihydropyridine-3,5-dicarbonitrile] |
| 11 | – | – | CC1=C(C#N)C(c2cc3cn[nH]c3cc2F)C(C#N)=C(C(F)F)N1 (single isomer, unassigned) [Example 17, 2-(Difluoromethyl)-4-(6-fluoro-1H-indazol-5-yl)-6-methyl-1,4-dihydropyridine-3,5-dicarbonitrile] |
| 9 | – | – | CC1=C(C#N)C(c2ccc3[nH]nc(C)c3c2)C(C#N)=C(C(F)(F)F)N1C (single isomer, unassigned) [Example 43, 1,2-Dimethyl-4-(3-methyl-1H-indazol-5-yl)-6-(trifluoromethyl)-1,4-dihydropyridine-3,5-dicarbonitrile] |
| 8 | – | – | CC1=C(C#N)C(c2ccc3[nH]nc(C)c3c2)C(C#N)=C(C(F)(F)F)N1C (single isomer, unassigned) [Example 44, 1,2-Dimethyl-4-(3-methyl-1H-indazol-5-yl)-6-(trifluoromethyl)-1,4-dihydropyridine-3,5-dicarbonitrile] |
| 28 | 20.2 | – | N#CC1=C(C(F)F)NC(C(F)F)=C(C#N)C1c1ccc2[nH]ncc2c1 [Example 24, 2,6-Bis(difluoromethyl)-4-(1H-indazol-5-yl)-1,4-dihydropyridine-3,5-dicarbonitrile] |
